Test results published in article doi:10.1101/2021.08.27.457891v1, “Optical Control of Invertebrate nAChR and Behaviors with Dithienylethene-Imidacloprid” (biorxiv, 2021).
pIC50, pKd: −log10 of the molar value.

Experiments:
[1] = biological target: T1, Musca nAChR; housefly (Musca domestica) nAChR; experiment: [3H]NMI radioligand displacement; type: binding; details: competition with [3H]NMI
T1 construct: gene nAChRalpha1; pentameric channel

[2] = biological target: T2, cockroach nAChRs; cockroach nAChR membranes; experiment: fluorescence polarization saturation binding; design: species or system Periplaneta americana; details: DitIMI irradiated at 320 nm for 15 min (photostationary mixture, 67% closed form); 227 mg/L membranes; 22 °C, 1 h
T2 construct: gene nAChRalpha1; pentameric channel

## O=[N+]([O-])N=C1NCCN1Cc1ccc(Cl)nc1 [IMI]
[1]
  pIC50: 7.54

## CC12SC(CN3CCN(Cc4ccc(Cl)nc4)C3=N[N+](=O)[O-])=CC1=C1C(=C3C=C(CN4CCN(Cc5ccc(Cl)nc5)C4=N[N+](=O)[O-])SC32C)C(F)(F)C(F)(F)C1(F)F (stereo not shown) [closed-DitIMI]
[2]
  pKd: 7.87
[1]; after UV illumination, photostationary mixture (67% closed form)
  pIC50: 7.48

## Cc1sc(CN2CCN(Cc3ccc(Cl)nc3)C2=N[N+](=O)[O-])cc1C1=C(c2cc(CN3CCN(Cc4ccc(Cl)nc4)C3=N[N+](=O)[O-])sc2C)C(F)(F)C(F)(F)C1(F)F [open-DitIMI]
[1]; unirradiated open form
  pIC50: 6.05
